Measurements published in ChEMBL document CHEMBL4004803, “Syntheses and antibacterial activity of soluble 9-bromo substituted indolizinoquinoline-5,12-dione derivatives” (Eur J Med Chem, 2017).
Converted amounts (≈) assume the structure as drawn.

What was measured:
Staphylococcus aureus [1] = experiment: Antibacterial activity against methicillin-resistant Staphylococcus aureus 518036 clinical isolate after 20 to 24 hrs by two-fold microdilution method; type: functional
Staphylococcus aureus [2] = experiment: Antibacterial activity against methicillin-resistant Staphylococcus aureus 221014 clinical isolate after 20 to 24 hrs by two-fold microdilution method; type: functional
Staphylococcus aureus [3] = experiment: Antibacterial activity against methicillin-resistant Staphylococcus aureus 130031 clinical isolate after 20 to 24 hrs by two-fold microdilution method; type: functional
Staphylococcus aureus [4] = experiment: Antibacterial activity against methicillin-resistant Staphylococcus aureus 122820-2 clinical isolate after 20 to 24 hrs by two-fold microdilution method; type: functional
Staphylococcus aureus [5] = experiment: Antibacterial activity against methicillin-resistant Staphylococcus aureus 110910-2 clinical isolate after 20 to 24 hrs by two-fold microdilution method; type: functional
Staphylococcus aureus [6] = experiment: Antibacterial activity against methicillin-resistant Staphylococcus aureus 122710-2 clinical isolate after 20 to 24 hrs by two-fold microdilution method; type: functional
Staphylococcus aureus [7] = experiment: Antibacterial activity against methicillin-resistant Staphylococcus aureus 531026 clinical isolate after 20 to 24 hrs by two-fold microdilution method; type: functional
Staphylococcus aureus [8] = experiment: Antibacterial activity against methicillin-resistant Staphylococcus aureus 1215028 clinical isolate after 20 to 24 hrs by two-fold microdilution method; type: functional
Staphylococcus aureus [9] = experiment: Antibacterial activity against methicillin-resistant Staphylococcus aureus 1106003 clinical isolate after 20 to 24 hrs by two-fold microdilution method; type: functional
Staphylococcus aureus [10] = experiment: Antibacterial activity against methicillin-resistant Staphylococcus aureus 1216052 clinical isolate after 20 to 24 hrs by two-fold microdilution method; type: functional
Staphylococcus aureus [11] = experiment: Antibacterial activity against methicillin-resistant Staphylococcus aureus 519028 clinical isolate after 20 to 24 hrs by two-fold microdilution method; type: functional
Staphylococcus aureus [12] = experiment: Antibacterial activity against methicillin-resistant Staphylococcus aureus 921026 clinical isolate after 20 to 24 hrs by two-fold microdilution method; type: functional
Staphylococcus aureus [13] = experiment: Antibacterial activity against methicillin-resistant Staphylococcus aureus 110432 clinical isolate after 20 to 24 hrs by two-fold microdilution method; type: functional
Staphylococcus aureus [14] = experiment: Antibacterial activity against methicillin-resistant Staphylococcus aureus 1026021 clinical isolate after 20 to 24 hrs by two-fold microdilution method; type: functional
Staphylococcus aureus [15] = experiment: Antibacterial activity against methicillin-resistant Staphylococcus aureus 829034 clinical isolate after 20 to 24 hrs by two-fold microdilution method; type: functional
Staphylococcus aureus [16] = experiment: Antibacterial activity against methicillin-resistant Staphylococcus aureus 1107027 clinical isolate after 20 to 24 hrs by two-fold microdilution method; type: functional
Staphylococcus aureus [17] = experiment: Antibacterial activity against methicillin-resistant Staphylococcus aureus 1101016 clinical isolate after 20 to 24 hrs by two-fold microdilution method; type: functional
Staphylococcus aureus [18] = experiment: Antibacterial activity against methicillin-resistant Staphylococcus aureus 215073 clinical isolate after 20 to 24 hrs by two-fold microdilution method; type: functional
Staphylococcus aureus [19] = experiment: Antibacterial activity against methicillin-resistant Staphylococcus aureus 305026 clinical isolate after 20 to 24 hrs by two-fold microdilution method; type: functional
Staphylococcus aureus [20] = experiment: Antibacterial activity against methicillin-resistant Staphylococcus aureus 1128040 clinical isolate after 20 to 24 hrs by two-fold microdilution method; type: functional
Staphylococcus aureus [21] = experiment: Antibacterial activity against methicillin-resistant Staphylococcus aureus GLH14 clinical isolate after 20 to 24 hrs by two-fold microdilution method; type: functional
Staphylococcus aureus [22] = experiment: Antibacterial activity against methicillin-resistant Staphylococcus aureus 212014 clinical isolate after 20 to 24 hrs by two-fold microdilution method; type: functional
Staphylococcus aureus [23] = experiment: Antibacterial activity against methicillin-resistant Staphylococcus aureus 109244 clinical isolate after 20 to 24 hrs by two-fold microdilution method; type: functional
Staphylococcus aureus [24] = experiment: Antibacterial activity against methicillin-resistant Staphylococcus aureus 110325 clinical isolate after 20 to 24 hrs by two-fold microdilution method; type: functional
Staphylococcus aureus [25] = experiment: Antibacterial activity against methicillin-resistant Staphylococcus aureus 110414 clinical isolate after 20 to 24 hrs by two-fold microdilution method; type: functional
Staphylococcus aureus [26] = experiment: Antibacterial activity against methicillin-resistant Staphylococcus aureus 414244 clinical isolate after 20 to 24 hrs by two-fold microdilution method; type: functional
Staphylococcus aureus [27] = experiment: Antibacterial activity against methicillin-resistant Staphylococcus aureus 1012039 clinical isolate after 20 to 24 hrs by two-fold microdilution method; type: functional
Staphylococcus aureus [28] = experiment: Antibacterial activity against methicillin-resistant Staphylococcus aureus 1211026 clinical isolate after 20 to 24 hrs by two-fold microdilution method; type: functional
[29] = Solubility of the compound in water at 25 degC measured after shaking for 4 hrs by UV method; type: physicochemical; details: buffer, 4 h
Staphylococcus aureus [30] = experiment: Antibacterial activity against methicillin-resistant Staphylococcus aureus 1025022 clinical isolate after 20 to 24 hrs by two-fold microdilution method; type: functional
Staphylococcus aureus [31] = experiment: Antibacterial activity against methicillin-resistant Staphylococcus aureus 11703 clinical isolate after 20 to 24 hrs by two-fold microdilution method; type: functional
Staphylococcus aureus [32] = experiment: Antibacterial activity against methicillin-resistant Staphylococcus aureus 523005 clinical isolate after 20 to 24 hrs by two-fold microdilution method; type: functional
Staphylococcus aureus [33] = experiment: Antibacterial activity against methicillin-resistant Staphylococcus aureus 503025 clinical isolate after 20 to 24 hrs by two-fold microdilution method; type: functional
Staphylococcus aureus [34] = experiment: Antibacterial activity against methicillin-resistant Staphylococcus aureus 214026 clinical isolate after 20 to 24 hrs by two-fold microdilution method; type: functional
Staphylococcus aureus [35] = experiment: Antibacterial activity against methicillin-resistant Staphylococcus aureus 224001 clinical isolate after 20 to 24 hrs by two-fold microdilution method; type: functional
Staphylococcus aureus [36] = experiment: Antibacterial activity against methicillin-resistant Staphylococcus aureus 216054 clinical isolate after 20 to 24 hrs by two-fold microdilution method; type: functional
Staphylococcus aureus [37] = experiment: Antibacterial activity against methicillin-resistant Staphylococcus aureus 3250299 clinical isolate after 20 to 24 hrs by two-fold microdilution method; type: functional
Staphylococcus aureus [38] = experiment: Antibacterial activity against methicillin-resistant Staphylococcus aureus 1029025 clinical isolate after 20 to 24 hrs by two-fold microdilution method; type: functional
Staphylococcus aureus [39] = experiment: Antibacterial activity against methicillin-resistant Staphylococcus aureus 20534 clinical isolate after 20 to 24 hrs by two-fold microdilution method; type: functional
Staphylococcus aureus [40] = experiment: Antibacterial activity against methicillin-resistant Staphylococcus aureus 121026 clinical isolate after 20 to 24 hrs by two-fold microdilution method; type: functional
Staphylococcus aureus [41] = experiment: Antibacterial activity against methicillin-resistant Staphylococcus aureus 1212057-1 clinical isolate after 20 to 24 hrs by two-fold microdilution method; type: functional
Staphylococcus aureus [42] = experiment: Antibacterial activity against methicillin-resistant Staphylococcus aureus 112430 clinical isolate after 20 to 24 hrs by two-fold microdilution method; type: functional
Staphylococcus aureus [43] = experiment: Antibacterial activity against methicillin-resistant Staphylococcus aureus 625032 clinical isolate after 20 to 24 hrs by two-fold microdilution method; type: functional
Staphylococcus aureus [44] = experiment: Antibacterial activity against methicillin-resistant Staphylococcus aureus 519030 clinical isolate after 20 to 24 hrs by two-fold microdilution method; type: functional
Escherichia coli = experiment: Antibacterial activity against Escherichia coli ATCC 25922 after 20 to 24 hrs by two-fold microdilution method; type: functional
Staphylococcus aureus [45] = experiment: Antibacterial activity against methicillin-resistant Staphylococcus aureus 531220 clinical isolate after 20 to 24 hrs by two-fold microdilution method; type: functional
Staphylococcus aureus [46] = experiment: Antibacterial activity against methicillin-resistant Staphylococcus aureus 1207026 clinical isolate after 20 to 24 hrs by two-fold microdilution method; type: functional

For `O=C1c2cccnc2C(=O)c2c1c(C(=O)OCCCCCN1CCOCC1)c1ccc(Br)cn21`, the MIC (Staphylococcus aureus [1]) was 0.063 µg/mL (≈ 0.12 µM), the MIC (Staphylococcus aureus [2]) was 0.031 µg/mL (≈ 0.0589 µM) and the MIC (Staphylococcus aureus [3]) was 0.063 µg/mL (≈ 0.12 µM). For the same molecule, the MIC (Staphylococcus aureus [4]) was 0.031 µg/mL (≈ 0.0589 µM), the MIC (Staphylococcus aureus [5]) was no more than 0.0078 µg/mL and the MIC (Staphylococcus aureus [6]) was no more than 0.0078 µg/mL. For the same molecule, the MIC (Staphylococcus aureus [7]) was no more than 0.0078 µg/mL, the MIC (Staphylococcus aureus [8]) was no more than 0.0078 µg/mL and the MIC (Staphylococcus aureus [9]) was 16 µg/mL (≈ 30.4 µM). It also gave an MIC (Staphylococcus aureus [10]) of 16 µg/mL (≈ 30.4 µM), an MIC (Staphylococcus aureus [11]) of no more than 0.0078 µg/mL and an MIC (Staphylococcus aureus [12]) of no more than 0.0078 µg/mL. For the same molecule, the MIC (Staphylococcus aureus [13]) was no more than 0.0078 µg/mL, the MIC (Staphylococcus aureus [14]) was 16 µg/mL (≈ 30.4 µM) and the MIC (Staphylococcus aureus [15]) was 0.125 µg/mL (≈ 0.237 µM). For the same molecule, the MIC (Staphylococcus aureus [16]) was no more than 0.0078 µg/mL, the MIC (Staphylococcus aureus [17]) was 0.031 µg/mL (≈ 0.0589 µM) and the MIC (Staphylococcus aureus [18]) was no more than 0.0078 µg/mL. It also gave an MIC (Staphylococcus aureus [19]) of 0.063 µg/mL (≈ 0.12 µM), an MIC (Staphylococcus aureus [20]) of no more than 0.0078 µg/mL and an MIC (Staphylococcus aureus [21]) of 0.031 µg/mL (≈ 0.0589 µM). The MIC (Staphylococcus aureus [22]) was 0.063 µg/mL (≈ 0.12 µM), the MIC (Staphylococcus aureus [23]) was 0.031 µg/mL (≈ 0.0589 µM) and the MIC (Staphylococcus aureus [24]) was no more than 0.0078 µg/mL. It also gave an MIC (Staphylococcus aureus [25]) of 0.031 µg/mL (≈ 0.0589 µM), an MIC (Staphylococcus aureus [26]) of 0.063 µg/mL (≈ 0.12 µM) and an MIC (Staphylococcus aureus [27]) of 0.125 µg/mL (≈ 0.237 µM). For the same molecule, the MIC (Staphylococcus aureus [28]) was no more than 0.0078 µg/mL, the solubility [29] was “Insoluble” and the MIC (Staphylococcus aureus [30]) was 0.031 µg/mL (≈ 0.0589 µM). The MIC (Staphylococcus aureus [31]) was 0.063 µg/mL (≈ 0.12 µM), the MIC (Staphylococcus aureus [32]) was 0.031 µg/mL (≈ 0.0589 µM) and the MIC (Staphylococcus aureus [33]) was 0.031 µg/mL (≈ 0.0589 µM). For the same molecule, the MIC (Staphylococcus aureus [34]) was 0.063 µg/mL (≈ 0.12 µM), the MIC (Staphylococcus aureus [35]) was 0.25 µg/mL (≈ 0.475 µM) and the MIC (Staphylococcus aureus [36]) was 0.063 µg/mL (≈ 0.12 µM). The MIC (Staphylococcus aureus [37]) was 0.031 µg/mL (≈ 0.0589 µM), the MIC (Staphylococcus aureus [38]) was 0.031 µg/mL (≈ 0.0589 µM) and the MIC (Staphylococcus aureus [39]) was 0.125 µg/mL (≈ 0.237 µM). It also gave an MIC (Staphylococcus aureus [40]) of no more than 0.0078 µg/mL, an MIC (Staphylococcus aureus [41]) of no more than 0.0078 µg/mL and an MIC (Staphylococcus aureus [42]) of no more than 0.0078 µg/mL. For the same molecule, the MIC (Staphylococcus aureus [43]) was 0.063 µg/mL (≈ 0.12 µM), the MIC (Staphylococcus aureus [44]) was 0.063 µg/mL (≈ 0.12 µM) and the MIC (Escherichia coli) was 8 µg/mL (≈ 15.2 µM). For the same molecule, the MIC (Staphylococcus aureus [45]) was no more than 0.0078 µg/mL and the MIC (Staphylococcus aureus [46]) was no more than 0.0078 µg/mL.
